Assay results published in US20230348416A1, “GPR52 MODULATOR COMPOUNDS” (Heptares Therapeutics Limited, priority 2020, published 2023).

Columns and labels:
[1] = target: T1, human GPR52 (Homo sapiens, UniProt Q9Y2T5); test: GPR52 Agonist Functional cAMP Assay; format: cell-based; conditions: for EC50: HEKf cells infected with human GPR52 BacMam virus, HTRF cAMP, 30 min at 37° C., read-out: PEC50 average (converted); for Emax / Emax (%): maximal response normalised to DMSO (0%) and compound 7m of J. Med. Chem., 2014, 57, 5226 (100%)
T1 construct: expressed in transfected cells; host or cells: HEKf suspension cells infected with BacMam virus
Procedure: GPR52 Agonist Functional cAMP Assay
HEKf suspension cells were infected for 24 h with 0.1% v/v human GPR52 expressing BacMam virus, a modified baculovirus designed for mammalian gene expression. Following BacMam infection, cells were pelleted by centrifugation (335 g, 5 min), resuspended in cell freezing medium (Sigma) and frozen at −150° C. until required. On experiment day, 25 nL GPR52 compound dilutions, prepared in DMSO, were stamped onto proxiplates (PerkinElmer) by a LabCyte ECHO acoustic dispenser. Frozen cells were thawed and resuspended in assay stimulation buffer (Cisbio) containing 0.5 mM 3-iso-butyl-1-methylxanthine (IBMX, Sigma) to achieve a density of 2000 cells per well. 10 μl cells were added to assay plates using a Multidrop Combi Reagent Dispenser (ThermoFisher) before centrifugation (335 g, 1 min). Cells were incubated with compounds at 37° C. for 30 min prior to addition of cAMP detection reagents (HiRange cAMP kit, Cisbio) which were prepared according to the manufacturer's instructions. Plates were shaken for 1 h at room temperature before reading on a PHERAstar FS plate reader (BMG Labtech) using standard HTRF settings. HTRF ratios were obtained by dividing the acceptor emissions (665 nm) by the donor emissions (620 nm) and multiplying by 10,000.

[2] = system: caffeine-induced hyperlocomotor activity; test: Attenuation of caffeine-induced locomotor activity in rat; format: in vivo, male Sprague-Dawley rats; conditions: PO 60 min before caffeine 15 mg/kg SC, locomotor activity over 2 h, FIG. 1
Description: Caffeine, a non-selective adenosine receptor antagonist, is a psychostimulant which increases rodent locomotor activity principally via blockade of A2A receptors (Br. J. Pharmacol., 2000, 129, 1465). These receptors are densely expressed on the terminals of GABAergic striatopallidal neurons in the indirect pathway of the basal ganglia, in which dopamine D2 receptors are co-expressed (J. Comp. Neurol., 1998, 401, 163; J. Comp. Neurol., 2001, 431, 331). Tonic activation of A2A receptors decreases the affinity of D2 receptors to dopamine and antagonism of A2A receptors facilitates dopaminergic signalling (Curr. Pharm. Des., 2008, 14, 1468). […] Male Sprague-Dawley rats (200-250 g) were housed in groups with a 12 h light/dark cycle (lights on at 07.00), at an ambient temperature of 21±2° C. and with standard pelleted diet and water adlibitum. Testing was carried out in the light phase. On the day of the experiment, animals were habituated to the locomotor cages for a 60-minute period. Subsequently, they were dosed with vehicle or Example 2 Isomer 1 (0.1, 0.3, 1 and 3 mg/kg) by the oral route and returned to the appropriate locomotor cage. Example 2 Isomer 1 was formulated in a vehicle of 10% DMAC, 10% solutol (Kolliphor HS15) and 80% water (v/v/v). […] Locomotor activity was assessed for a 2 h period after caffeine treatment. […] SEMs were calculated from the residuals of the statistical model. […]

T1 sequence (Q9Y2T5 whole entry): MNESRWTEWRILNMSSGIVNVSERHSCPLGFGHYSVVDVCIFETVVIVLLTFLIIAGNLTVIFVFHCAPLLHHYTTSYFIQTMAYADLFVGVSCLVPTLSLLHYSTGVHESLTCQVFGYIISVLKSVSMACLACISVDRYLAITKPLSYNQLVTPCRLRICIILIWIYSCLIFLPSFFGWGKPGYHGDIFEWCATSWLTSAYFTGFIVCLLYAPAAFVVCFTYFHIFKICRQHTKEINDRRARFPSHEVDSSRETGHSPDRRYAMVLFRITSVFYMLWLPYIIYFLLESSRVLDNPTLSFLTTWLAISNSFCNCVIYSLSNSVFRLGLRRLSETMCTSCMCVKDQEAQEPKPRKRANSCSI

EC50 [1] [nM] | Emax [1] [%] | Emax (%) [1] [%] | Structure (SMILES) | effect on caffeine-induced hyperlocomotor response [2]
12.6 | 101 |  | NC1CCCc2c1nnn2-c1cc(Cc2cc(F)cc(C(F)(F)F)c2)ccn1 (single isomer, unassigned) [Example 1 Isomer 1, 1-(4-(3-fluoro-5-(trifluoromethyl)benzyl)pyridin-2-yl)-4,5,6,7-tetrahydro-1H-benzo[d][1,2,3]triazol-4-amine] | 
63.1 |  | 97 | NC1CCCc2c1nnn2-c1cc(Cc2cc(F)cc(C(F)(F)F)c2)ccn1 (single isomer, unassigned) [Example 1 Isomer 2, 1-(4-(3-fluoro-5-(trifluoromethyl)benzyl)pyridin-2-yl)-4,5,6,7-tetrahydro-1H-benzo[d][1,2,3]triazol-4-amine] | 
15.8 |  | 91 | CC(=O)NC1CCCc2c1nnn2-c1cc(Cc2cc(F)cc(C(F)(F)F)c2)ccn1 (single isomer, unassigned) [Example 2 Isomer 1, N-(1-(4-(3-fluoro-5-(trifluoromethyl)benzyl)pyridin-2-yl)-4,5,6,7-tetrahydro-1H-benzo[d][1,2,3]triazol-4-yl)acetamide] | dose-dependent reduction of the caffeine-induced hyperlocomotor response, reaching statistical significance across all time points at 3 and 10 mg/kg
2510 | 78 |  | CC(=O)NC1CCCc2c1nnn2-c1cc(Cc2cc(F)cc(C(F)(F)F)c2)ccn1 (single isomer, unassigned) [Example 2 Isomer 2, N-(1-(4-(3-fluoro-5-(trifluoromethyl)benzyl)pyridin-2-yl)-4,5,6,7-tetrahydro-1H-benzo[d][1,2,3]triazol-4-yl)acetamide] | 
501 | 73 |  | CC(=O)NC1CCCc2c1nnn2-c1cc(Cc2cc(F)cc(C(F)F)c2)ccn1 (single isomer, unassigned) [Example 13 Isomer 1, N-(1-(4-(3-(difluoromethyl)-5-fluorobenzyl)pyridin-2-yl)-4,5,6,7-tetrahydro-1H-benzo[d][1,2,3]triazol-4-yl)acetamide] | 
5.01 |  | 93 | CC(=O)NC1CCCc2c1nnn2-c1cc(Cc2cc(F)cc(C(F)F)c2)ccn1 (single isomer, unassigned) [Example 13 Isomer 2, N-(1-(4-(3-(difluoromethyl)-5-fluorobenzyl)pyridin-2-yl)-4,5,6,7-tetrahydro-1H-benzo[d][1,2,3]triazol-4-yl)acetamide] | 
25.1 | 100 |  | NC1CCCc2c1nnn2-c1cc(Cc2cc(F)cc(C(F)(F)F)c2)ccn1 (stereo not drawn) [Example 1, 1-(4-(3-fluoro-5-(trifluoromethyl)benzyl)pyridin-2-yl)-4,5,6,7-tetrahydro-1H-benzo[d][1,2,3]triazol-4-amine] | 
25.1 | 96 |  | CCC(=O)NC1CCCc2c1nnn2-c1cc(Cc2cc(F)cc(C(F)(F)F)c2)ccn1 (stereo not drawn) [Example 3, N-(1-(4-(3-fluoro-5-(trifluoromethyl)benzyl)pyridin-2-yl)-4,5,6,7-tetrahydro-1H-benzo[d][1,2,3]triazol-4-yl)propionamide] | 
25.1 | 87 |  | O=C(NC1CCCc2c1nnn2-c1cc(Cc2cc(F)cc(C(F)(F)F)c2)ccn1)C(F)F (stereo not drawn) [Example 4, 2,2-difluoro-N-(1-(4-(3-fluoro-5-(trifluoromethyl)benzyl)pyridin-2-yl)-4,5,6,7-tetrahydro-1H-benzo[d][1,2,3]triazol-4-yl)acetamide] | 
126 | 89 |  | CC(=O)NC1CCCc2c1nnn2-c1cc(Oc2cc(F)cc(C(F)(F)F)c2)ccn1 (stereo not drawn) [Example 6, N-(1-(4-(3-fluoro-5-(trifluoromethyl)phenoxy)pyridin-2-yl)-4,5,6,7-tetrahydro-1H-benzo[d][1,2,3]triazol-4-yl)acetamide] | 
31.6 | 98 |  | CNC1CCCc2c1nnn2-c1cc(Cc2cc(F)cc(C(F)(F)F)c2)ccn1 (stereo not drawn) [Example 7, 1-(4-(3-fluoro-5-(trifluoromethyl)benzyl)pyridin-2-yl)-N-methyl-4,5,6,7-tetrahydro-1H-benzo[d][1,2,3]triazol-4-amine] | 
50.1 | 94 |  | COCCNC1CCCc2c1nnn2-c1cc(Cc2cc(F)cc(C(F)(F)F)c2)ccn1 (stereo not drawn) [Example 8, 1-(4-(3-fluoro-5-(trifluoromethyl)benzyl)pyridin-2-yl)-N-(2-methoxyethyl)-4,5,6,7-tetrahydro-1H-benzo[d][1,2,3]triazol-4-amine] | 
100 | 93 |  | Fc1cc(Cc2ccnc(-n3nnc4c3CCCC4NC3COC3)c2)cc(C(F)(F)F)c1 (stereo not drawn) [Example 9, 1-(4-(3-fluoro-5-(trifluoromethyl)benzyl)pyridin-2-yl)-N-(oxetan-3-yl)-4,5,6,7-tetrahydro-1H-benzo[d][1,2,3]triazol-4-amine] | 
31.6 | 94 |  | Fc1cc(Cc2ccnc(-n3nnc4c3CCCC4NC3CCOC3)c2)cc(C(F)(F)F)c1 (stereo not drawn) [Example 10, 1-(4-(3-fluoro-5-(trifluoromethyl)benzyl)pyridin-2-yl)-N-(tetrahydrofuran-3-yl)-4,5,6,7-tetrahydro-1H-benzo[d][1,2,3]triazol-4-amine] | 
200 | 91 |  | CC(=O)NC1CCCc2c1nnn2-c1cc(Cc2cccc(C(F)(F)F)c2)ccn1 (stereo not drawn) [Example 11, N-(1-(4-(3-(trifluoromethyl)benzyl)pyridin-2-yl)-4,5,6,7-tetrahydro-1H-benzo[d][1,2,3]triazol-4-yl)acetamide] | 
31.6 | 87 |  | CC(=O)NC1CCCc2c1nnn2-c1cc(Cc2cc(F)cc(OC(F)F)c2)ccn1 (stereo not drawn) [Example 12, N-(1-(4-(3-(difluoromethoxy)-5-fluorobenzyl)pyridin-2-yl)-4,5,6,7-tetrahydro-1H-benzo[d][1,2,3]triazol-4-yl)acetamide] | 
12.6 | 93 |  | CC(=O)NC1CCCc2c1nnn2-c1cc(Cc2cc(F)cc(C(F)F)c2)ccn1 (stereo not drawn) [Example 13, N-(1-(4-(3-(difluoromethyl)-5-fluorobenzyl)pyridin-2-yl)-4,5,6,7-tetrahydro-1H-benzo[d][1,2,3]triazol-4-yl)acetamide] | 
50.1 | 90 |  | CC(=O)NC1CCCc2c1nnn2-c1cc(Cc2cc(F)cc(CF)c2)ccn1 (stereo not drawn) [Example 14, N-(1-(4-(3-fluoro-5-(fluoromethyl)benzyl)pyridin-2-yl)-4,5,6,7-tetrahydro-1H-benzo[d][1,2,3]triazol-4-yl)acetamide] | 

Structure (SMILES) | EC50 [1] [nM] | Emax [1] [%] | Emax (%) [1] [%] | effect on caffeine-induced hyperlocomotor response [2]
O=C(CF)NC1CCCc2c1nnn2-c1cc(Cc2cc(F)cc(C(F)(F)F)c2)ccn1 (stereo not drawn) [Example 5, 2-fluoro-N-[1-(4-{[3-fluoro-5-(trifluoromethyl)phenyl]methyl}pyridin-2-yl)-4,5,6,7-tetrahydro-1H-benzotriazol-4-yl]acetamide] | 39.8 | 94 |  | 
